Experimental data: PMC12555108, “In‐vitro Assessment of BCRP‐Mediated Efflux of Antiseizure Medications in Human Blood‐Brain Barrier Cell Model” (Journal of Biochemical and Molecular Toxicology, 2025)

Legend:
[1] = parameters: method as in Johannessen, 2004; Patsalos, 2008; Lee, 2016; conditions: patients with epilepsy; ref Johannessen, 2004; Patsalos, 2008; Lee, 2016; cited from earlier work
BCRP [2] = target: T1, BCRP (Homo sapiens, UniProt Q9UNQ0); test: bidirectional transport assay across hCMEC/D3 cell monolayer with or without Ko143; conditions: for transport by BCRP (conclusion of bidirectional transport assay): ER ≥ 1.5 and significantly reduced by Ko143; for efflux ratio at 2 h / Papp A→B at 2 h, 21 μM / Papp A→B at 2 h, 42 μM / Papp B→A at 2 h, 21 μM / Papp B→A at 2 h, 42 μM / efflux ratio at 2 h, 21 μM / efflux ratio at 2 h, 42 μM / Papp A→B at 2 h, 25 µM / Papp A→B at 2 h, […] µM / Papp B→A at 2 h, 25 µM / Papp B→A at 2 h, […] µM: human; for efflux ratio at 2 h: pH 7.4, Efflux ratio (ER) without inhibitor, at all the tested concentrations
T1 sequence (Q9UNQ0 1-655): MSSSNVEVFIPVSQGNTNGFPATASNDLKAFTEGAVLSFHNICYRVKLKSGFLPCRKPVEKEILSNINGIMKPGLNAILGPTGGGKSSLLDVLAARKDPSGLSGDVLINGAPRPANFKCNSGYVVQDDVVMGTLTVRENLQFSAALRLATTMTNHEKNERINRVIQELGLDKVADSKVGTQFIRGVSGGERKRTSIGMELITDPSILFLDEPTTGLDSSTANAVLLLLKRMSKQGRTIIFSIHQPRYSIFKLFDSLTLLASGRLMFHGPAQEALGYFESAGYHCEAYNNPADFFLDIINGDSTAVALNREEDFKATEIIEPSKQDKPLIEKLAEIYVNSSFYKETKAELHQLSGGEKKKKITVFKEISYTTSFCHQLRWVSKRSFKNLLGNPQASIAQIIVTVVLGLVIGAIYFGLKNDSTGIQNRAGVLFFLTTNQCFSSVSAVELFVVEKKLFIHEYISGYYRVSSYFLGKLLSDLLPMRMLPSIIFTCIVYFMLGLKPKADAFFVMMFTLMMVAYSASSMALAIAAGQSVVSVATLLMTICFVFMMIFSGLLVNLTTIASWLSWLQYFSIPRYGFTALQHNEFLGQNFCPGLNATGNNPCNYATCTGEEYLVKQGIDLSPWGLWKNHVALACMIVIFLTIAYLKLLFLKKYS
Procedure: For transport assays, hCMEC/D3 cells were seeded on collagen type I‐coated Transwell inserts (polycarbonate 12‐well, pore size […]) (cat. no. CLS3460; Corning, NY, USA) at 80% confluency and cultured as described in section 2.5. In brief, the drug was dissolved in Hanks’ balanced salt solution supplemented with 10 mM HEPES, 1 mM Na‐Pyruvate, pH 7.4 at 37°C (transport buffer). Initially, both sides of the chamber were washed with 1X PBS and the assay was performed with pre‐warmed transport buffer. 0.5 ml or 1.5 ml of the drug solution, with or without BCRP‐specific inhibitor Ko143 (1 μM) was added to either the apical side or basolateral side of the monolayer, respectively, and fresh transport buffer was added to the opposite side. Aliquots of 100 μl samples were taken from the opposite sides every 30 min for 2 h, and the same amount of fresh transport buffer was added to the same chamber after each sampling. […] Concentrations of ASMs were evaluated by HPLC or LC/MS. Apparent permeability (Papp) is defined as the transport rate of ASM and efflux ratio (ER) was calculated as the ratio of Papp in the basolateral‐to‐apical (Papp(B→A)) direction to the Papp in the apical‐to‐basolateral (Papp(A→B)) direction. The samples were stored at −20°C until analysis. […] Fluorescence detection of lucifer yellow (excitation at 430 nm, and emission at 535 nm) was carried out with Infinite 200 PRO NanoQuant (Tecan, Zurich, Switzerland). […] All transport assays were performed in triplicate.
The calculation for apparent permeability coefficient, Papp, was performed as described before. Papp=dQr/dt/A×C0 where dQr/dt is the cumulative amount in the receiver side vs time in μM/s
A is the area of the cell monolayer
C0 is the initial concentration of the dosing solution (μM).
And, Efflux ratio=Papp(B−to−A)/Papp(A−to−B)

BCRP [3] = target: T1, BCRP; parameters: host or cells: MCF-7 cells overexpressing BCRP; conditions: previous study; cited from earlier work
BCRP [4] = target: T1, BCRP; test: competitive substrate efflux assay (BODIPY-prazosin accumulation) in hCMEC/D3 cells; format: cell-based
Procedure: The potential of ASMs to compete with a known fluorescent substrate of BCRP, BPZ in hCMEC/D3 cells was examined using a competitive substrate efflux assay that has previously been used in various studies. The interaction of CBZ, DCLB, OXC, TPM, and LEVI with BCRP was evaluated. Initially, hCMEC/D3 were seeded in 12‐well plates (cat. no. 150628, Nunc, Thermo Fisher Scientific, MA, USA) at 70‐80% confluency for 24 h. In this study, Ko143 was used for BCRP inhibition. The cultured cells were incubated at 37°C for half an hour in media containing BPZ with either the test ASMs or Ko143. Cells were washed with chilled 1X PBS three times and again incubated at 37°C for 1 h 30 min in BPZ‐free media with or without Ko143. Cells were washed three times with ice‐cold 1X PBS to terminate the assay. Cell lysis was performed by adding 1% triton X‐100, followed by incubating the cells for 15 min at 37°C. 20 µl of cell lysate was placed in 384‐well black assay plates for fluorescence detection (excitation at 488 nm; emission at 530 nm) to Infinite 200 PRO NanoQuant (Tecan, Zurich, Switzerland). The rest of the cell lysate was used for determining protein levels using the BCA protein estimation method to normalize the observed fluorescence intensity with total protein yield. The data were shown as a fold increment in intracellular fluorescence of BPZ relative to the control.

BCRP [5] = target: T1, BCRP; test: vanadate-sensitive BCRP ATPase assay (membrane vesicles from MCF-7 cells overexpressing BCRP); format: biochemical; parameters: host or cells: MCF-7 cells overexpressing BCRP; conditions: 40 µM
Procedure: To assess the interaction between ASMs and BCRP, a vanadate‐sensitive ATPase assay was performed as per the manufacturer's instructions manual. […] After 10 min, 1x developer solution was added and kept for 2 min. To stop the reaction, 100 µL blocker solution was added and incubated for 30 min. at 37°C. The optical densities were measured at 620 nm using an Infinite 200 PRO NanoQuant (Tecan, Zurich, Switzerland) plate reader. 1 μM Ko143 was used as a positive control for BCRP inhibition. Ko143 was used at a concentration that is known to inhibit BCRP efficiently. The results were expressed as vanadate‐sensitive ATPase activity that is based on the difference in inorganic phosphate released between samples with and without vanadate. This will evaluate the ability of the test ASM to stimulate BCRP's baseline ATPase activity.

Q: With CC[C@@H](C(N)=O)N1CCCC1=O [LEVI, levetiracetam] as the compound, how does the “Therapeutic plasma concentration range” value [1] read?
A: 35 to 120 µM

Q: What about the “transport by BCRP (conclusion of bidirectional transport assay)” value (“transport by BCRP” below) (BCRP [2]; hCMEC/D3 monolayer) of the same compound?
A: not

Q: And the directional transport (BCRP [2]; hCMEC/D3 monolayer, data not shown)?
A: did not show any directional transport

Q: What about the efflux ratio at 2 h (BCRP [2]; hCMEC/D3 monolayer) of the same compound?
A: < 1.5

Q: And the “stimulation of BCRP ATPase activity” value (BCRP [3])?
A: no significant stimulation

Q: And the “intracellular accumulation of BPZ in hCMEC/D3 cells” value (BCRP [4])?
A: did not affect

Q: Which “Therapeutic plasma concentration range” value [1] does the source give for NC(=O)N1c2ccccc2C=Cc2ccccc21 [CBZ, carbamazepine] here?
A: 15 to 45 µM

Q: What about the “transport by BCRP” value (BCRP [2]; hCMEC/D3 monolayer) of the same compound?
A: not

Q: What about the Papp A→B at 2 h, 21 μM (BCRP [2]; pH 7.4) of the same compound?
A: 3.37 ×10⁻⁶ cm/s

Q: What about the Papp A→B at 2 h, 42 μM (BCRP [2]; pH 7.4) of the same compound?
A: 3.37 ×10⁻⁶ cm/s

Q: And the Papp B→A at 2 h, 21 μM (BCRP [2]; pH 7.4)?
A: 4.27 ×10⁻⁶ cm/s

Q: What about the Papp B→A at 2 h, 42 μM (BCRP [2]; pH 7.4) of the same compound?
A: 4.04 ×10⁻⁶ cm/s

Q: What about the efflux ratio at 2 h (BCRP [2]; hCMEC/D3 monolayer) of the same compound?
A: < 1.5

Q: And the efflux ratio at 2 h, 21 μM (BCRP [2]; pH 7.4, Efflux ratio (ER), hCMEC/D3 without inhibitor Ko143, 21 μM, hCMEC/D3 monolayer)?
A: 1.23

Q: And the efflux ratio at 2 h, 42 μM (BCRP [2]; pH 7.4, Efflux ratio (ER), hCMEC/D3 without inhibitor Ko143, 42 μM, hCMEC/D3 monolayer)?
A: 1.18

Q: What about the Papp A→B at 2 h, 21 μM (BCRP [2]; pH 7.4, with Ko143 1 μM) of the same compound?
A: 4.72 ×10⁻⁶ cm/s

Q: What about the Papp A→B at 2 h, 42 μM (BCRP [2]; pH 7.4, with Ko143 1 μM) of the same compound?
A: 3.82 ×10⁻⁶ cm/s

Q: What about the Papp B→A at 2 h, 21 μM (BCRP [2]; pH 7.4, with Ko143 1 μM) of the same compound?
A: 3.03 ×10⁻⁶ cm/s

Q: And the Papp B→A at 2 h, 42 μM (BCRP [2]; pH 7.4, with Ko143 1 μM)?
A: 4.27 ×10⁻⁶ cm/s

Q: And the efflux ratio at 2 h, 21 μM (BCRP [2]; pH 7.4, with Ko143 1 μM, Efflux ratio (ER), hCMEC/D3 with inhibitor Ko143, 21 μM, hCMEC/D3 monolayer, 1 μM Ko143)?
A: 0.98

Q: What about the efflux ratio at 2 h, 42 μM (BCRP [2]; pH 7.4, with Ko143 1 μM, Efflux ratio (ER), hCMEC/D3 with inhibitor Ko143, 42 μM, hCMEC/D3 monolayer, 1 μM Ko143) of the same compound?
A: 1.12

Q: What about the “stimulation of BCRP ATPase activity” value (BCRP [3]) of the same compound?
A: no significant stimulation

Q: What about the “intracellular accumulation of BPZ in hCMEC/D3 cells” value (BCRP [4]) of the same compound?
A: did not affect

Q: Which “stimulation of BCRP ATPase activity (activation assay)” value (BCRP [5]) does the source give for NC(=O)N1c2ccccc2CC(=O)c2ccccc21 [OXC, oxcarbazepine] here?
A: significantly stimulated

Q: What about the “transport by BCRP” value (BCRP [2]; hCMEC/D3 monolayer) of the same compound?
A: transports

Q: And the Papp A→B at 2 h, 25 µM (BCRP [2]; pH 7.4)?
A: 2.64 ×10⁻⁶ cm/s

Q: And the Papp A→B at 2 h, […] µM (BCRP [2]; pH 7.4)?
A: 16.5 ×10⁻⁶ cm/s

Q: And the Papp B→A at 2 h, 25 µM (BCRP [2]; pH 7.4)?
A: 4.72 ×10⁻⁶ cm/s

Q: What about the Papp B→A at 2 h, […] µM (BCRP [2]; pH 7.4) of the same compound?
A: 39.4 ×10⁻⁶ cm/s

Q: What about the Papp A→B at 2 h, 25 µM (BCRP [2]; pH 7.4, with Ko143 1 μM) of the same compound?
A: 3.21 ×10⁻⁶ cm/s

Q: What about the Papp A→B at 2 h, […] µM (BCRP [2]; pH 7.4, with Ko143 1 μM) of the same compound?
A: 140 ×10⁻⁶ cm/s

Q: What about the Papp B→A at 2 h, 25 µM (BCRP [2]; pH 7.4, with Ko143 1 μM) of the same compound?
A: 3.59 ×10⁻⁶ cm/s

Q: What about the Papp B→A at 2 h, […] µM (BCRP [2]; pH 7.4, with Ko143 1 μM) of the same compound?
A: 169 ×10⁻⁶ cm/s

Q: And the “BPZ accumulation in hCMEC/D3 cells” value (BCRP [4]; […] and […] µM)?
A: significantly increased
